Here are results for 3 compounds from patent US9751886B2, “4-amino-6-phenyl-6,7-dihydro[1,2,3]triazolo[1,5-A]pyrazine derivatives as inhibitors of beta-secretase (BACE)” (Janssen Pharmaceutica NV, priority 2013, dated 2017).

Assay [1] concerns the target T1, recombinant BACE1 protein (Homo sapiens (Human), UniProt P56817). The assay can be described thus: BACE1 Biochemical FRET based assay - Method 2. The following applies: 0.04 μg/ml BACE1, 20 μM substrate, 450 min, pH 5.0. The source says:
(§1) This assay is a Fluorescence Resonance Energy Transfer Assay (FRET) based assay. The substrate for this assay is an APP derived 13 amino acids peptide that contains the ‘Swedish’ Lys-Met/Asn-Leu mutation of the amyloid precursor protein (APP) beta-secretase cleavage site. This substrate also contains two fluorophores: (7-methoxycoumarin-4-yl) acetic acid (Mca) is a fluorescent donor with excitation wavelength at 320 nm and emission at 405 nm and 2,4-Dinitrophenyl (Dnp) is a proprietary quencher acceptor. […] Upon cleavage by BACE1, the fluorophore Mca is separated from the quenching group Dnp, restoring the full fluorescence yield of the donor. The increase in fluorescence is linearly related to the rate of proteolysis.
Briefly in a 384-well format recombinant BACE1 protein in a final concentration of 0.04 μg/ml is incubated for 450 minutes at room temperature with 20 μM substrate in incubation buffer (50 mM Citrate buffer pH 5.0, 0.05% PEG) in the presence of compound or DMSO. Next the amount of proteolysis is directly measured by fluorescence measurement (excitation at 320 nm and emission at 405 nm) at different incubation times (0, 30, 60, 90, 120 and 450 min). For every experiment a time curve (every 30 min between 0 min and 120 min) is used to determine the time where we find the lowest basal signal of the high control. The signal at this time (Tx) is used to subtract from the signal at 450 min. Results are expressed in RFU, as difference between T450 and Tx.

The target of assay [2] is recombinant BACE2 protein (Homo sapiens (Human), UniProt Q9Y5Z0). The assay can be described thus: BACE2 Biochemical FRET based assay. The note with it: 0.4 μg/ml BACE2, 10 μM substrate, 450 min, pH 5.0.
Sequence of recombinant BACE2 protein (Q9Y5Z0 63-518): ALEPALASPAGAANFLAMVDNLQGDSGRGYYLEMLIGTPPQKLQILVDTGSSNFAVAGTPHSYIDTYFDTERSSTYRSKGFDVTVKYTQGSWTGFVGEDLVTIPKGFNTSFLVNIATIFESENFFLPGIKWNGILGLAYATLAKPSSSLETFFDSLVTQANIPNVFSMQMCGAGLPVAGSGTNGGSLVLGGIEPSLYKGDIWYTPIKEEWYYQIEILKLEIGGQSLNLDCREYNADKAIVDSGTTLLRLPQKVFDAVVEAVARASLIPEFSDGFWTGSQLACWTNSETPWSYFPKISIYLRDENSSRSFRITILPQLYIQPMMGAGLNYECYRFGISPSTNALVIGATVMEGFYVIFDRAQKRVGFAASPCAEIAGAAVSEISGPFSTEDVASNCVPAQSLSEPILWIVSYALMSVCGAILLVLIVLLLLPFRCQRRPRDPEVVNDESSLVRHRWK
Excerpt: as §1, with “assay” for “assay is an APP derived 13 amino acids peptide that”, “the beta-secretase,” for “BACE1,”
Briefly in a 384-well format recombinant BACE2 protein in a final concentration of 0.4 μg/ml is incubated for 450 minutes at room temperature with 10 μM substrate in incubation buffer (50 mM Citrate buffer pH 5.0, 0.05% PEG, no DMSO) in the absence or presence of compound. Next the amount of proteolysis is directly measured by fluorescence measurement at T=0 and T=450 (excitation at 320 nm and emission at 405 nm). Results are expressed in RFU (Relative Fluorescence Units), as difference between T450 and TO.

Assay [3] has as its system Abeta 1-42 secreted by human neuroblastoma SKNBE2 cells expressing wild type hAPP695. The assay can be described thus: BACE1 cellular αLisa assay in SKNBE2 cells, Abeta 1-42. Format: cell-based. The following applies: 18 hours incubation; for IC50: Homo sapiens, read-out: Cellular αLisa assay in SKNBE2 cells Abeta 42 pIC50 (converted). On the procedure: (§2) In two αLisa assays the levels of Abeta total and Abeta 1-42 produced and secreted into the medium of human neuroblastoma SKNBE2 cells are quantified. The assay is based on the human neuroblastoma SKNBE2 expressing the wild type Amyloid Precursor Protein (hAPP695). The compounds are diluted and added to these cells, incubated for 18 hours and then measurements of Abeta 1-42 and Abeta total are taken. Abeta total and Abeta 1-42 are measured by sandwich αLisa. αLisa is a sandwich assay using biotinylated antibody AbN/25 attached to streptavidin coated beads and antibody Ab4G8 or cAb42/26 conjugated acceptor beads for the detection of Abeta total and Abeta 1-42 respectively. In the presence of Abeta total or Abeta 1-42, the beads come into close proximity. The excitation of the donor beads provokes the release of singlet oxygen molecules that trigger a cascade of energy transfer in the acceptor beads, resulting in light emission.

Assay [4] has as its system Abeta total secreted by human neuroblastoma SKNBE2 cells expressing wild type hAPP695. The assay can be described thus: BACE1 cellular αLisa assay in SKNBE2 cells, Abeta total. Format: cell-based. The note with it: 18 hours incubation; for IC50: Homo sapiens, read-out: Cellular αLisa assay in SKNBE2 cells Abetatotal pIC50 (converted). On the procedure: as §2
Assay [5] has as its target T1, recombinant BACE1 protein. As to the kind of experiment: BACE1 Biochemical FRET based assay - Method 1. The note with it: 1 μg/ml BACE1, 10 μM substrate, 120 min, pH 5.0.
Excerpt: as §1
Briefly in a 384-well format recombinant BACE1 protein in a final concentration of 1 μg/ml is incubated for 120 minutes at room temperature with […] substrate in incubation buffer (40 mM Citrate buffer pH 5.0, 0.04% PEG, 4% DMSO) in the absence or presence of compound. Next the amount of proteolysis is directly measured by fluorescence measurement at T=0 and T=120 (excitation at 320 nm and emission at 405 nm). Results are expressed in RFU (Relative Fluorescence Units), as difference between T120 and TO.

For assay [6], the system named is brain levels of soluble Aβ42, Aβ40. The assay can be described thus: In vivo Aβ lowering in non-transgenic rodents (MSD electrochemiluminescence). The arrangement: species or system mouse. The note with it: dose 10, p.o., untreated control = 100. The source says:
To determine whether acute administration of an Aβ lowering agent would reduce Aβ levels in vivo, non-transgenic rodents, e.g. mice or rats were used. Animals treated with the Aβ lowering agent were examined and compared to those untreated or treated with vehicle and brain levels of soluble Aβ42, Aβ40, Aβ38, and Aβ37 were quantitated by Meso Scale Discovery's (MSD) electrochemiluminescence detection technology. Treatment periods varied from hours (h) to days and were adjusted based on the results of the Aβ lowering once a time course of onset of effect could be established.
A typical protocol for measuring Aβ lowering in vivo is shown but it is only one of many variations that could be used to optimize the levels of detectable A. For example, Aβ lowering compounds were formulated in 20% of Captisol® (a sulfo-butyl ether of β-cyclodextrin) in water or 20% hydroxypropyl β cyclodextrin. The Aβ lowering agents were administered as a single oral dose or by any acceptable route of administration to overnight fasted animals. […]
Blood was collected by decapitation and exsanguinations in EDTA-treated collection tubes. Blood was centrifuged at 1900 g for 10 minutes (min) at 4° C. and the plasma recovered and flash frozen for later analysis. The brain was removed from the cranium and hindbrain. The cerebellum was removed and the left and right hemisphere were separated. The left hemisphere was stored at −18° C. for quantitative analysis of test compound levels. The right hemisphere was rinsed with phosphate-buffered saline (PBS) buffer and immediately frozen on dry ice and stored at −80° C. until homogenization for biochemical assays.
Mouse brains from non-transgenic animals were resuspended in 8 volumes of 0.4% DEA (diethylamine)/50 mM NaCl containing protease inhibitors (Roche-11873580001 or 04693159001) per gram of tissue, e.g. for 0.158 g brain, add 1.264 ml of 0.4% DEA. All samples were homogenized in the FastPrep-24 system (MP Biomedicals) using lysing matrix D (MPBio #6913-100) at 6 m/s for 20 seconds. Homogenates were centrifuged at 20800×g for 5 min and supernatants collected. Supernatants were centrifuged at 221.300×g for 50 min. The resulting high speed supernatants were then transferred to fresh eppendorf tubes. Nine parts of supernatant were neutralized with 1 part 0.5 M Tris-HCl pH 6.8 and used to quantify Aβ.
To quantify the amount of Aβ42, Aβ40, Aβ38, and Aβ37 in the soluble fraction of the brain homogenates, simultaneous specific detection of Aβ42, Aβ40, Aβ38, and Aβ37 was performed using MSD's electro-chemiluminescence multiplex detection technology. In this assay purified monoclonal antibodies specific for Abeta37 (JRD/Aβ37/3), Abeta38 (J&JPRD/Aβ38/5), Abeta40 (JRF/cAβ40/28), and Abeta42 (JRF/cAβ(342/26) were coated on MSD 4-plex plates. Briefly, the standards (a dilution of synthetic Aβ42, Aβ40, Aβ38, and Aβ37) were prepared in 1.5 ml Eppendorf tube in Ultraculture, with final concentrations ranging from 10000 to 0.3 pg/m. The samples and standards were co-incubated with Sulfo-tag labelled JRF/rAβ/2 antibody to the N-terminus of Aβ as detector antibody. 50 μl of conjugate/sample or conjugate/standards mixtures were then added to the antibody-coated plate. The plate was allowed to incubate overnight at 4° C. in order to allow formation of the antibody-amyloid complex. Following this incubation and subsequent wash steps the assay was finished by adding read buffer according to the manufacturer's instructions (Meso Scale Discovery, Gaitherburg, Md.).
The SULFO-TAG emits light upon electrochemical stimulation initiated at the electrode. MSD Sector instrument SI6000 was used for signal read-out.
The results are shown in Table 8 (value for untreated animals as control (Ctrl) was set at 100): […]

T1 sequence (P56817 46-501): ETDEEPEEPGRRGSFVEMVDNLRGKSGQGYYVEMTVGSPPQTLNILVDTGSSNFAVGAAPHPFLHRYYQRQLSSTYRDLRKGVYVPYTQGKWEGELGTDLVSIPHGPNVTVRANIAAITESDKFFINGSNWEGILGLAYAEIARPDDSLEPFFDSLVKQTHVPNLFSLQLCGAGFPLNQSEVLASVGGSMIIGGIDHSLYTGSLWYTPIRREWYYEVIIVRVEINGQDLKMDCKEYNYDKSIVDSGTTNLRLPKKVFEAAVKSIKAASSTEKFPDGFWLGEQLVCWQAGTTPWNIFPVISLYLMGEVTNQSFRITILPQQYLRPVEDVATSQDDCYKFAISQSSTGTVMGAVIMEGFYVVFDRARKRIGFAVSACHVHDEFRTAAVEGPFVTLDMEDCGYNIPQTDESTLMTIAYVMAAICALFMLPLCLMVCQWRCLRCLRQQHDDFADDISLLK

Turning to `COc1cnc(C(=O)Nc2ccc(F)c([C@]3(C)Cn4nncc4C(N)=N3)c2)cn1` [Compound 3, N-{3-[(6R)-4-Amino-6-methyl-6,7-dihydro[1,2,3]triazolo[1,5-a]pyrazin-6-yl]-4-fluorophenyl}-5-methoxypyrazine-2-carboxamide], the “BACE1 Biochemical FRET based assay - Method 2 pIC50” value in assay [1] was 8.69. For the same compound, in assay [2], the “BACE2 Biochemical FRET based assay pIC50” value was 7.81. The IC50 in assay [3] is 1.82 nM; in assay [4], 1.62 nM; in assay [5] (read-out: BACE1 Biochemical FRET based assay - Method 1 pIC50 (converted)), 2.04 nM.
In the case of `C[C@@]1(c2cc(NC(=O)c3ccc(Cl)cn3)ccc2F)Cn2nncc2C(N)=N1` [Compound 4], the “BACE1 Biochemical FRET based assay - Method 2 pIC50” value in assay [1] was found to be 8.75. Moreover, in assay [2], the “BACE2 Biochemical FRET based assay pIC50” value came out at 8.56. Further, the “Cellular αLisa assay in SKNBE2 cells Abeta 42 pIC50” value in assay [3] amounted to 8.77. Also, in assay [4], the “Cellular αLisa assay in SKNBE2 cells Abetatotal pIC50” value was determined as 8.88. Besides, the “BACE1 Biochemical FRET based assay - Method 1 pIC50” value in assay [5] is 8.76.
Take `NC1=N[C@](CF)(c2cc(NC(=O)c3ccc(F)cn3)ccc2F)Cn2nncc21` [Compound 10, N-{3-[(6R)-4-amino-6-(fluoromethyl)-6,7-dihydro[1,2,3]triazolo[1,5-a]pyrazin-6-yl]-4-fluorophenyl}-5-fluoropyridine-2-carboxamide]: the “BACE1 Biochemical FRET based assay - Method 2 pIC50” value in assay [1] amounted to 8.39. The “BACE2 Biochemical FRET based assay pIC50” value in assay [2] is 8.49. Besides, the IC50 in assay [3] and in assay [4] was 24.5 nM in each case. Besides, the entries for the “Aβ40 (% vs Ctrl)_Mean” value in assay [6] (2 h after administration) and in assay [6] (4 h after administration) were 95 % vs Ctrl and 116 % vs Ctrl, respectively. The “Aβ42 (% vs Ctrl)_Mean” value came out at 79 % vs Ctrl in assay [6] (2 h after administration) and 87 % vs Ctrl in assay [6] (4 h after administration).
